Source: patent US12329876B2, “Porous bioresorbable radiopaque embolic microspheres for drug delivery” (REVA Medical, LLC, priority 2018, dated 2025)

Experiment: degradation kinetics (mass loss) of copolymers and of microbeads from copolymer blends (FIGS. 12A, 12B)
Format: physicochemical
Source text: The illustrative examples of achievable degradation profile are presented on FIGS. 12A and 12B.
Adjusting ratio of iodinated structural component (PrD-diI2DAT) and rubbery component (PEG400 or PEG1000), ratio of Carbonate to Oxalate bonds in single copolymer or utilizing blends of copolymers, a wide spectrum of degradation profiles could be achieved, including multi-step degradation.

Substance: Copolymer 50% PrD-di I2DAT-co-50% PEG1K with 100% carbonate bonds [Formula #4]
- degradation kinetic (mass loss), result in words: slow degradation
